Assay results reported in patent US20260083714A1, “DOSING REGIMEN FOR TREATING PKU WITH A PIPERIDINE INHIBITOR OF SLC6A19 FUNCTION” (Jnana Therapeutics Inc., priority 2022, published 2026).
Read-outs that look alike come from different tables or passages of the source.

Assays:
SLC6A19 = target: T1, SLC6A19 (Homo sapiens, UniProt Q695T7); test: 24 h excretion of phenylalanine and Hartnup amino acids at Day 1, 7 and 14 of suspension administration in healthy volunteers; assay type: in vivo; details: for Hartnup Amino Acids excretion over 24 hours, Mean / Phenylalanine excretion over 24 hours, Mean: in mg
T1 construct: SCL6A19 is located in the proximal tubule of the kidney and is responsible for reabsorption of amino acids back into the blood; from tissue; host or cells: Kidney proximal tubule of healthy volunteers (in vivo, endogenous)
T1 sequence (Q695T7 1-634): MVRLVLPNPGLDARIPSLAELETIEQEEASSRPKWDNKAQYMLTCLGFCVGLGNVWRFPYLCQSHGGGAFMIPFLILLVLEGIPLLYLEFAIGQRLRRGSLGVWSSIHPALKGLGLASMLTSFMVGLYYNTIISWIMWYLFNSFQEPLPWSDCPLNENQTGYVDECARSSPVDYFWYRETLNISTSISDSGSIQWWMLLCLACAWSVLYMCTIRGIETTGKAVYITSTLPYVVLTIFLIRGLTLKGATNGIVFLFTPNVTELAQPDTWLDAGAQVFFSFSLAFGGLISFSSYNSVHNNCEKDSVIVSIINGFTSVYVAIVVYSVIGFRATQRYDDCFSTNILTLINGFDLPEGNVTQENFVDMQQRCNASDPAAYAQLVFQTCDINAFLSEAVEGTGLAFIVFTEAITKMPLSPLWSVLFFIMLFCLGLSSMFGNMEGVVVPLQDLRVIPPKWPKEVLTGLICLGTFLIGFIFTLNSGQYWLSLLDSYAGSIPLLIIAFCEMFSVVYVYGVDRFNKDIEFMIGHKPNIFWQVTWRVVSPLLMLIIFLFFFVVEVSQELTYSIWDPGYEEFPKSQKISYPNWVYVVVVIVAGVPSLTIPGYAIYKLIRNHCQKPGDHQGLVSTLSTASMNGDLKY
T1 sequence (Q9HBJ8 15-222 partner): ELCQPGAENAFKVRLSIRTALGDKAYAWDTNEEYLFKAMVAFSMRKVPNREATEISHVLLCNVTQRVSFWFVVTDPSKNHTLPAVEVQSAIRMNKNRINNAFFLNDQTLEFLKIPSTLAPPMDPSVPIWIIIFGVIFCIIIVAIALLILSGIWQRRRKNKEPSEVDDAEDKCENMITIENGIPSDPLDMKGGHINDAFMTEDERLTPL
Method: FIG. 3A is a graph of the pharmacodynamic effect of Compound 1 over time in healthy volunteers by measuring changes in total overall SLC6A19 amino acid substrates (Hartnup amino acids) over 14 days of administration of a suspension of the compound at three different doses (25 or 75 mg twice daily [BID] or 150 mg once daily [QD]).
FIG. 3B is a graph of the pharmacodynamic effect of Compound 1 over time in healthy volunteers by measuring changes in total 24 hour phenylalanine over 14 days of administration of a suspension of the compound at three different doses (25 or 75 mg twice daily [BID] or 150 mg once daily [QD]).
A suspension formulation of varying doses of Compound 1 (25 or 75 mg twice daily [BID] or 150 mg once daily [QD]) was administered to healthy volunteers. Changes in excretion of phenylalanine or overall SLC6A19 amino acid substrates (Hartnup amino acids) over 24 hours were measured at Day 1, 7 and 14 (FIGS. 3A and 3B). Urinary excretion of Hartnup amino acids over 24 hours increased from 0.4 g w/ PBO to 4.9 g w/ the compound 75 mg BID (13-fold increase) (Table 15A).

[1] = Plasma levels of Compound 1 over 72 h, suspension versus tablet, fasted or fed, in healthy volunteers; assay type: in vivo; details: human, oral, 100 mg, read-out: Plasma level, Mean; for concentration at 0.5 h: 0.5 h post-dose; for concentration at 1 h: 1 h post-dose; for concentration at 1.5 h: 1.5 h post-dose; for concentration at 2 h: 2 h post-dose; for concentration at 2.5 h: 2.5 h post-dose; for concentration at 3 h: 3 h post-dose; for concentration at 4 h: 4 h post-dose; for concentration at 6 h: 6 h post-dose; for concentration at 8 h: 8 h post-dose; for concentration at 10 h: 10 h post-dose; for concentration at 12 h: 12 h post-dose; for concentration at 24 h: 24 h post-dose; for concentration at 36 h: 36 h post-dose; for concentration at 48 h: 48 h post-dose; for concentration at 72 h: 72 h post-dose; for concentration at 0 h: 0 h post-dose
Method: FIG. 4 is a graph of the pharmacokinetics of Compound 1 over 72 hours in healthy volunteers in fed or fasted states when administering 100 mg of the compound as a suspension formulation or a tablet.
A suspension formulation (100 mg, fasted) and tablet formulation (100 mg, fasted or fed) of Compound 1 was administered to healthy volunteers. Plasma levels of Compound 1 over 72 was measured (FIG. 4). Post-dose plasma levels are recited in Table 16.

Hartnup Amino Acids excretion over 24 hours, Mean (SLC6A19; 25 mg BID suspension, Day 1): 2123.44
Phenylalanine excretion over 24 hours, Mean (SLC6A19; 25 mg BID suspension, Day 1): 37.38
Hartnup Amino Acids excretion over 24 hours, Mean (SLC6A19; 25 mg BID suspension, Day 7): 1835.21
Phenylalanine excretion over 24 hours, Mean (SLC6A19; 25 mg BID suspension, Day 7): 35.22
Hartnup Amino Acids excretion over 24 hours, Mean (SLC6A19; 25 mg BID suspension, Day 14): 1427.77
Phenylalanine excretion over 24 hours, Mean (SLC6A19; 25 mg BID suspension, Day 14): 19.65
increase of urinary excretion of Hartnup amino acids over 24 hours (SLC6A19; 75 mg BID suspension versus PBO (0.4 g)): 13 fold
Hartnup Amino Acids excretion over 24 hours, Mean (SLC6A19; 75 mg BID suspension, Day 1): 4472.55
Phenylalanine excretion over 24 hours, Mean (SLC6A19; 75 mg BID suspension, Day 1): 105.25
Hartnup Amino Acids excretion over 24 hours, Mean (SLC6A19; 75 mg BID suspension, Day 7): 4398.31
Phenylalanine excretion over 24 hours, Mean (SLC6A19; 75 mg BID suspension, Day 7): 70.98
Hartnup Amino Acids excretion over 24 hours, Mean (SLC6A19; 75 mg BID suspension, Day 14): 4922.75
Phenylalanine excretion over 24 hours, Mean (SLC6A19; 75 mg BID suspension, Day 14): 88.64
Urinary excretion of Hartnup amino acids over 24 hours (SLC6A19; 75 mg BID suspension, healthy volunteers): 4.9 g
Hartnup Amino Acids excretion over 24 hours, Mean (SLC6A19; 150 mg QD suspension, Day 1): 3861.43
Phenylalanine excretion over 24 hours, Mean (SLC6A19; 150 mg QD suspension, Day 1): 106.76
Hartnup Amino Acids excretion over 24 hours, Mean (SLC6A19; 150 mg QD suspension, Day 7): 6785.54
Phenylalanine excretion over 24 hours, Mean (SLC6A19; 150 mg QD suspension, Day 7): 166.71
Hartnup Amino Acids excretion over 24 hours, Mean (SLC6A19; 150 mg QD suspension, Day 14): 3737.47
Phenylalanine excretion over 24 hours, Mean (SLC6A19; 150 mg QD suspension, Day 14): 72.43
concentration at 0.5 h ([1]; 100 mg suspension, fasted): 1840 ng/mL
concentration at 1 h ([1]; 100 mg suspension, fasted): 2310 ng/mL
concentration at 1.5 h ([1]; 100 mg suspension, fasted): 2440 ng/mL
concentration at 2 h ([1]; 100 mg suspension, fasted): 2630 ng/mL
concentration at 2.5 h ([1]; 100 mg suspension, fasted): 2620 ng/mL
concentration at 3 h ([1]; 100 mg suspension, fasted): 2720 ng/mL
concentration at 4 h ([1]; 100 mg suspension, fasted): 2750 ng/mL
concentration at 6 h ([1]; 100 mg suspension, fasted): 2090 ng/mL
concentration at 8 h ([1]; 100 mg suspension, fasted): 1580 ng/mL
concentration at 10 h ([1]; 100 mg suspension, fasted): 1110 ng/mL
concentration at 12 h ([1]; 100 mg suspension, fasted): 778 ng/mL
concentration at 24 h ([1]; 100 mg suspension, fasted): 216 ng/mL
concentration at 36 h ([1]; 100 mg suspension, fasted): 50 ng/mL
concentration at 48 h ([1]; 100 mg suspension, fasted): 24.2 ng/mL
concentration at 72 h ([1]; 100 mg suspension, fasted): 12.8 ng/mL
concentration at 0 h ([1]; 100 mg tablet, fasted): 12.1 ng/mL
concentration at 0.5 h ([1]; 100 mg tablet, fasted): 1600 ng/mL
concentration at 1 h ([1]; 100 mg tablet, fasted): 2110 ng/mL
concentration at 1.5 h ([1]; 100 mg tablet, fasted): 2400 ng/mL
concentration at 2 h ([1]; 100 mg tablet, fasted): 2550 ng/mL
concentration at 2.5 h ([1]; 100 mg tablet, fasted): 2530 ng/mL
concentration at 3 h ([1]; 100 mg tablet, fasted): 2580 ng/mL
concentration at 4 h ([1]; 100 mg tablet, fasted): 2580 ng/mL
concentration at 6 h ([1]; 100 mg tablet, fasted): 2070 ng/mL
concentration at 8 h ([1]; 100 mg tablet, fasted): 1650 ng/mL
concentration at 10 h ([1]; 100 mg tablet, fasted): 1250 ng/mL
concentration at 12 h ([1]; 100 mg tablet, fasted): 891 ng/mL
concentration at 24 h ([1]; 100 mg tablet, fasted): 324 ng/mL
concentration at 36 h ([1]; 100 mg tablet, fasted): 59.5 ng/mL
concentration at 48 h ([1]; 100 mg tablet, fasted): 29 ng/mL
concentration at 72 h ([1]; 100 mg tablet, fasted): 11.4 ng/mL
concentration at 0 h ([1]; 100 mg tablet, fed): 12.1 ng/mL
concentration at 0.5 h ([1]; 100 mg tablet, fed): 1660 ng/mL
concentration at 1 h ([1]; 100 mg tablet, fed): 2220 ng/mL
concentration at 1.5 h ([1]; 100 mg tablet, fed): 2320 ng/mL
concentration at 2 h ([1]; 100 mg tablet, fed): 2850 ng/mL
concentration at 2.5 h ([1]; 100 mg tablet, fed): 2910 ng/mL
concentration at 3 h ([1]; 100 mg tablet, fed): 2950 ng/mL
concentration at 4 h ([1]; 100 mg tablet, fed): 2860 ng/mL
concentration at 6 h ([1]; 100 mg tablet, fed): 2260 ng/mL
concentration at 8 h ([1]; 100 mg tablet, fed): 1740 ng/mL
concentration at 10 h ([1]; 100 mg tablet, fed): 1270 ng/mL
concentration at 12 h ([1]; 100 mg tablet, fed): 963 ng/mL
concentration at 24 h ([1]; 100 mg tablet, fed): 329 ng/mL
concentration at 36 h ([1]; 100 mg tablet, fed): 90.1 ng/mL
concentration at 48 h ([1]; 100 mg tablet, fed): 45 ng/mL
concentration at 72 h ([1]; 100 mg tablet, fed): 15 ng/mL
Structure (SMILES): NC(=O)N1CCC[C@@H](N(C(=O)NCc2ccc(OC(F)(F)F)cc2F)C2CC2)C1 [Cpd 1, (R)-3-(1-cyclopropyl-3-(2-fluoro-4-(trifluoromethoxy)benzyl)ureido) piperidine-1-carboxamide]
